Data taken from patent publication US20100022637A1, “IDENTIFICATION OF ANTI-CANCER COMPOUNDS AND COMPOUNDS FOR TREATING HUNTINGTON'S DISEASE AND METHODS OF TREATMENT THEREOF” (THE TRUSTEES OF COLUMBIA UNIVERSITY IN THE CITY OF NEW YORK, priority 2005, published 2010).

Key:
RKO-E6 cells = test: Alamar Blue viability assay, RKO-E6; format: cell-based, human; conditions: in words; for effect on doxorubicin's lethality in RKO-E6 cells: co-treatment with 0.5 μg/ml doxorubicin, 24 h
Procedure: RKO colon carcinoma, human (ATCC, order # CRL-2577), RKO-E6 colon carcinoma transfected with HPV E6 inserted in pCMV.3 (ATCC, order # CRL-2578) were grown in MEM with 2 mM L-glutamine and Earle's BBS adjusted to contain 1.5 g/L NaHCO3, 0.1 mM non-essential amino acids and 1.0 mM sodium pyruvate, and supplemented with 10% fetal bovine serum, penicillin and streptomycin (pen/strep). Both cell lines were incubated at 37° C. in a humidified incubator containing 5% CO2.
The Alamar Blue assay incorporates a fluorimetric/colorimetric growth indicator that changes color in the response to chemical reduction by viable cells (Nociari 1998). Cells were seeded at a density of 3,000 cells (57 μl) per well in a 384-well black, clear-bottom plates using a syringe bulk dispenser (Zymark Sciclone ALH). Three microliters were removed from a compound daughter plate using a 384 fixed cannula head and added to the assay plate, making the final concentration 4 μg/ml. The plates were incubated for 24 h at 37° C. 10 μl of 40% Alamar Blue (Biosource Int., cat #DAL1100) solution in media was added to each well (1:10 dilution). The assay plates were incubated for 16h. Fluorescence intensity was determined using a Packard Fusion platereader with a 535 nm excitation filter and a 590 nm emission filter. The average fluorescence for the whole plate was used as a positive control. Average percentage inhibition for each well was determined using our freely available SLIMS software (Kelley et al., 2004).
The daughter plates for the 2-fold dilution series were prepared with a Zymark Sciclone ALH by diluting the replica daughter plates to obtain compound concentrations from 8 μg/ml-0.008 μg/ml (columns 8-18). Columns 1-7 were used as untreated control. RKO-E6 cells were seeded at the density of 3,000 per well in 55 μl, and 5 μl were added from the daughter plate. RKO cells were seeded at the density of 2,000 per well in 55 μl, and 5 μl were added from the daughter plate. The assay was incubated for 24 h at 37° C. 10% Alamar Blue was added to each well and the assay was incubated for 16 h (see above). Compounds for retesting were purchased from the manufacturers or from Sigma-Aldrich (see above). Stocks were prepared in DMSO at 4 mg/ml.
Each cell line (RKO, RKO-E6, HeLa and TC32) was treated with a dose combination matrix of doxorubicin and a selected hit compound. Each treatment was done in a triplicate in 384-well format. The average percent inhibition of cell proliferation, measured with Alamar Blue, was determined using the following formula: […]

[1] = Rescue and toxicity of Compound 164 and analogs (Table 4); conditions: for Max % Toxicity / Max % Rescue: Table 4, cell model not stated; for TC50: Table 4, toxicity

For `NC(=O)NO` [hydroxyurea], the “effect on doxorubicin's lethality in RKO-E6 cells” value (“effect on doxorubicin's lethality” below) (RKO-E6 cells) was “only modest upregulation of doxorubicin's lethality”.

For `COc1ccc(CN2CCN(C(=O)c3ccco3)CC2)cc1OC` [Compound 164-19, 1-(3,4-dimethoxybenzyl)-4-(2-furoyl)piperazine], the EC50 [1] was 18900 nM and the “Max % Toxicity” value [1] was 27.77%.

In the case of `CC[C@H]1CN2CCc3cc(OC)c(OC)cc3[C@@H]2C[C@@H]1C[C@H]1NCCc2cc(OC)c(OC)cc21` [emetine], the “effect on doxorubicin's lethality” value (RKO-E6 cells) is reported as “potentiated doxorubicin's lethality”.

In the case of `Cc1ccc(C2(CCNC(=O)c3ccc(Br)o3)CCOC(C(C)C)C2)cc1` (centres unmarked) [Compound 164-2], the EC50 [1] is reported as 440 nM and the “Max % Toxicity” value [1] is reported as 53.69%.

In the case of `COc1ccccc1C1(CCN(Cc2ccccc2)C(=O)c2ccco2)CCOC(C)(C)C1` (centres unmarked) [Compound 164-10, 2-Furancarboxamide, N-(phenylmethyl)-N-[2-[tetrahydro-4-(2-methoxyphenyl)-2,2-dimethyl-2H-pyran-4-yl]ethyl]-(9CI)], the EC50 [1] is reported as 200 nM, the TC50 [1] is reported as 1.7 µM and the “Max % Toxicity” value [1] is reported as 62.27%.

For `CCCCCC(O)C=CC1CCC(=O)C1CCCCCCC(=O)O` (centres unmarked) [11-deoxyprostaglandin E1], the “effect on doxorubicin's lethality” value (RKO-E6 cells) was “showed no activity”.

In the case of `CCC(=O)N(CCC1(c2ccc(F)cc2)CCOC(C)(C)C1)Cc1ccc(OC)c(OC)c1` (centres unmarked) [Compound 164-15, Propanamide, N-[(3,4-dimethoxyphenyl)methyl]-N-[2-[4-(4-fluorophenyl)tetraydro-2,2-dimethyl-2H-pyran-4-yl}ethyl]-(9CI)], the “Max % Rescue” value [1] is reported as 48.92%.

In the case of `COc1ccc(CN(CCC(c2ccc(OC(C)C)cc2)C(C)C)C(=O)c2ccco2)cc1` (centres unmarked) [Compound 164-7], the EC50 [1] is reported as 100 nM, the TC50 [1] is reported as 0.4 µM and the “Max % Toxicity” value [1] is reported as 63.90%.

With `COc1ccc(C2c3cc(OC)c(OC)cc3CCN2C(=O)c2ccco2)cc1OC` (centres unmarked) [Compound 164-11, Isoquinoline, 1-(3,4-dimethoxyphenyl)-2-(2-furanylcarbonyl)-1,2,3,4-tetrahydro-6,7-dimethoxy-(9CI)] the “Max % Rescue” value [1] was 7.95%.

In the case of `CC(c1ccccc1)N(CCC(Cc1ccccc1)C1COCC(C)(C)C1)C(=O)c1ccco1` (centres unmarked) [Compound 164-4], the TC50 [1] is reported as 0.4 µM and the “Max % Toxicity” value [1] is reported as 64.22%.

With `COc1ccc(CN(CCC(c2ccc(OC)cc2)C2CCOC(C)(C)C2)C(=O)c2ccco2)cc1` (centres unmarked) [Compound 164-14, N-[3-(2,2-dimethyltetrahydro-2H-pyran-4-yl)-3-(4-methoxyphenyl)propyl]-N-(4-methoxybenzyl)-2-furamide] the EC50 [1] was 200 nM, the TC50 [1] was 2 µM and the “Max % Toxicity” value [1] was 53.80%.

In the case of “Propanamide, N-[(3,4-dimethoxyphenyl)methyl]-N-[2-(tetrahydro-2,2-dimethyl-4-phenyl-2H-pyran-4-yl)ethyl]-(9CI) [Compound 164-8]”, the “Max % Rescue” value [1] is reported as 51.48%.

With `O[C@H]1[C@H]2c3cc4c(cc3CN3CC[C@H](C[C@@H]1O)[C@H]23)OCO4` [dihydrolycorine] the “effect on doxorubicin's lethality” value (RKO-E6 cells) was “potentiated doxorubicin's lethality”.

With `COc1ccc(CN(CCC(c2ccccc2)C2CCOC(C)(C)C2)C(=O)c2ccco2)cc1OC` (centres unmarked) [Compound 164-5, N-(3,4-dimethoxybenzyl)-N-[3-(2,2-dimethyltetrahydro-2H-pyran-4-yl)-3-phenylpropyl]-2-furamide] the EC50 [1] was 200 nM, the TC50 [1] was 6 µM and the “Max % Toxicity” value [1] was 18.43%.

In the case of `CC(=O)N(CCC1(c2ccc(C)cc2)CCOC(C(C)C)C1)Cc1ccco1` (centres unmarked) [Compound 164-12, N-(2-furylmethyl)-N-{2-[2-isopropyl-4-(4-methylphenyl)tetrahydro-2H-pyran-4-yl]ethyl}acetamide], the TC50 [1] is reported as 8 µM and the “Max % Toxicity” value [1] is reported as 60.37%.

In the case of `O=C(c1ccco1)N1CCN(Cc2ccc3c(c2)OCO3)CC1` [Compound 164-17, 1-(1,3-benzodioxol-5-ylmethyl)-4-(2-furoyl)piperazine], the “Max % Toxicity” value [1] is reported as 31.31%.

In the case of `COc1ccc(CN(CCC2(c3ccccc3)CCOC(C)(C)C2)C(C)=O)cc1OC` (centres unmarked) [Compound 164-9], the “Max % Rescue” value [1] is reported as 28.56% and the “Max % Toxicity” value [1] is reported as 19.60%.

In the case of `COc1ccc(CN(CCC2(c3ccc(C)cc3)CCOC(C)(C)C2)C(=O)c2ccco2)cc1` (centres unmarked) [Compound 164-6], the EC50 [1] is reported as 100 nM, the TC50 [1] is reported as 3 µM and the “Max % Toxicity” value [1] is reported as 60.14%.

With `CCCCCCCCCCCCCCCC[N+](C)(C)C.[Br-]` [cetrimonium bromide, cetyltrimethylammonium bromide] the “effect on doxorubicin's lethality” value (RKO-E6 cells) was “selectively increased doxorubicin's lethality” and the “effect on camptothecin's lethality” value (RKO-E6 cells; co-treatment with camptothecin) was “did not synergize with camptothecin”.

For `CCC(=O)N(CCC(Cc1ccccc1)C1CCOC(C)(C)C1)Cc1ccco1` (centres unmarked) [Compound 164-3], the EC50 [1] was 200 nM, the TC50 [1] was 8 µM and the “Max % Toxicity” value [1] was 56.80%.

With `COc1cccc(CN2CCN(C(=O)c3ccco3)CC2)c1` [Compound 164-18, 1-(2-furoyl)-4-(3-methoxybenzyl)piperazine] the “Max % Toxicity” value [1] was 12.00%.

For `CC(c1ccccc1)N(CCC(c1ccccc1)C1CCOC(C)(C)C1)C(=O)c1ccco1` (centres unmarked) [Compound 164-13, N-[3-(2,2-dimethyltetrahydro-2H-pyran-4-yl)-3-phenylpropyl]-N-(1-phenylethyl)-2-furamide], the TC50 [1] was 4 µM and the “Max % Toxicity” value [1] was 55.74%.
